From patent publication US7989449B2, “4,5-dihydro-oxazol-2-yl amine derivatives” (Hoffman-La Roche Inc., priority 2008, dated 2011) come the findings set out here.

As a reminder, the IC50 is the concentration needed to halve the response being measured.

Where a name gives a salt, the structure may show the parent alone.

In this experiment the target is T1, 6his-tagged full length BACE 1 from SF9 cells (Homo sapiens, UniProt P56817).
T1 construct: 6his-tagged full length BACE 1 from SF9 cells; made in house; host or cells: Sf9 insect cells
T1 sequence (P56817 46-501): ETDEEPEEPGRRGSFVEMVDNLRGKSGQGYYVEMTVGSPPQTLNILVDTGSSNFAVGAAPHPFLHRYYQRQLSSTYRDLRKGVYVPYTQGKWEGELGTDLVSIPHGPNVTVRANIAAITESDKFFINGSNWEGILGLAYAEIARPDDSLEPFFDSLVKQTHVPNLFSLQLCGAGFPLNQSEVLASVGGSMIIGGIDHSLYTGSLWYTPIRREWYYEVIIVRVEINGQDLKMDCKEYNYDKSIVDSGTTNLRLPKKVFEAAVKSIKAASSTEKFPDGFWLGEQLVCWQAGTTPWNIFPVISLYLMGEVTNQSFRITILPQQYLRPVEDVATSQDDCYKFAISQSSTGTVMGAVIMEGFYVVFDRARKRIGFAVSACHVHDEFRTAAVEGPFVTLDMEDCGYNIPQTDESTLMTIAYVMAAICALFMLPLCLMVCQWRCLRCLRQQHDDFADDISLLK
Briefly: BACE1 MR121 protease assay. It is filed as biochemical. The note with it: 30 nM 6his-BACE-1, 300 nM substrate peptide WSEVNLDAEFRC-MR121, Na-acetate pH 4.0, fluorescence. On the procedure:
Assay plate: 384 well microtiter plate, Corning clear, flat bottom, non binding surface
Assaybuffer: 100 mM Na-acetate pH 4.0, 20 mM EDTA, 0.05% BSA
BACE-1: 6his-tagged full length BACE 1 from SF9 cells
Substrate peptide: WSEVNLDAEFRC-MR121
BACE1 MR121 protease assay
39 μl of a 38 nM 6his-BACE-1 solution in assay buffer (final conc. in the assay: 30 nM) were pipetted into the assay plate. 1 μl of a concentration of a potential inhibitor in dimethylsulfoxide was added to the enzyme and incubated for 10 min. Finally, 10 μl of a 1.5 μM solution of the substrate in assay buffer (final conc. in the assay: 300 nM) was added to start the enzymatic reaction. After strong mixing for 2 min the enzymatic reaction was followed by measuring the fluorescence intensity every two minutes for 15 min on a suitable fluorescence reader. […] The slope was calculated from the linear part of the kinetic as a measure of the activity of BACE-1. A range of concentrations of the potential inhibitor was used to generate data for calculating the concentration of inhibitor resulting in 50% of the effect (e.g. IC50, the concentration of the compound inhibiting the BACE-1 activity by 50%).
In turn, `COc1cncc(-c2cccc(C3(c4ccc(OC(F)F)c(Cl)c4)COC(N)=N3)c2)c1` (racemic) [Example 117, (RS)-4-(3-Chloro-4-difluoromethoxy-phenyl)-4-[3-(5-methoxy-pyridin-3-yl)-phenyl]-4,5-dihydro-oxazol-2-ylamine formate] came in with an IC50 of 80 nM.
Under `NC1=NC(c2cccc(-c3cncnc3)c2)(c2ccc(OC(F)F)c(Cl)c2)CO1` (racemic) [Example 118, (RS)-4-(3-Chloro-4-difluoromethoxy-phenyl)-4-(3-pyrimidin-5-yl-phenyl)-4,5-dihydro-oxazol-2-ylamine formate] stands 200 nM.
`Cc1cc(C2(c3ccc(F)c(-c4cccnc4)c3)COC(N)=N2)ccc1OC(F)F` (racemic) [Example 119, (RS)-4-(4-Difluoromethoxy-3-methyl-phenyl)-4-(4-fluoro-3-pyridin-3-yl-phenyl)-4,5-dihydro-oxazol-2-ylamine formate] registered an IC50 of 130 nM.
As for `Cc1cc(C2(c3ccc(F)c(-c4cncnc4)c3)COC(N)=N2)ccc1OC(F)F` (racemic) [Example 120, (RS)-4-(4-Difluoromethoxy-3-methyl-phenyl)-4-(4-fluoro-3-pyrimidin-5-yl-phenyl)-4,5-dihydro-oxazol-2-ylamine formate], the figure is 90 nM.
Under `COc1cncc(-c2cc(C3(c4ccc(OC(F)F)c(C)c4)COC(N)=N3)ccc2F)c1` (racemic) [Example 121, (RS)-4-(4-Difluoromethoxy-3-methyl-phenyl)-4-[4-fluoro-3-(5-methoxy-pyridin-3-yl)-phenyl]-4,5-dihydro-oxazol-2-ylamine formate] stands 50 nM; under `Cc1cc(C2(c3ccc(F)c(-c4cncc(F)c4)c3)COC(N)=N2)ccc1OC(F)F` (racemic) [Example 122, (RS)-4-(4-Difluoromethoxy-3-methyl-phenyl)-4-[4-fluoro-3-(5-fluoro-pyridin-3-yl)-phenyl]-4,5-dihydro-oxazol-2-ylamine formate], 150 nM; under `COc1ccc(F)c(-c2cc(C3(c4ccc(OC(F)F)c(C)c4)COC(N)=N3)ccc2F)c1` (racemic) [Example 123, (RS)-4-(6,2′-Difluoro-5′-methoxy-biphenyl-3-yl)-4-(4-difluoromethoxy-3-methyl-phenyl)-4,5-dihydro-oxazol-2-ylamine formate], 200 nM.
With `Cc1cc(OC(F)F)ccc1C1(c2cccc(-c3cncnc3)c2)COC(N)=N1` (racemic) [Example 129, (RS)-4-(4-Difluoromethoxy-2-methyl-phenyl)-4-(3-pyrimidin-5-yl-phenyl)-4,5-dihydro-oxazol-2-ylamine formate], it took 500 nM to reach half-maximal inhibition (IC50).
As for `COc1ccc(F)c(-c2cccc(C3(c4ccc(OC(F)F)cc4C)COC(N)=N3)c2)c1` (racemic) [Example 130, (RS)-4-(4-Difluoromethoxy-2-methyl-phenyl)-4-(2′-fluoro-5′-methoxy-biphenyl-3-yl)-4,5-dihydro-oxazol-2-ylamine formate], the figure is 490 nM; as for `Cc1cnc(F)c(-c2cccc(C3(c4ccc(OC(F)F)cc4C)COC(N)=N3)c2)c1` (racemic) [Example 131, (RS)-4-(4-Difluoromethoxy-2-methyl-phenyl)-4-[3-(2-fluoro-5-methyl-pyridin-3-yl)-phenyl]-4,5-dihydro-oxazol-2-ylamine formate], 460 nM; as for `NC1=NC(c2cccc(-c3cncc(F)c3)c2)(c2ccc(OC(F)F)cc2F)CO1` (racemic) [Example 142, (RS)-4-(4-Difluoromethoxy-2-fluoro-phenyl)-4-[3-(5-fluoro-pyridin-3-yl)-phenyl]-4,5-dihydro-oxazol-2-ylamine formate], 840 nM.
Under `Cc1cc(OC(F)F)ccc1C1(c2cccc(-c3cncc(F)c3)c2)COC(N)=N1` (racemic) [Example 145, (RS)-4-(4-Difluoromethoxy-2-methyl-phenyl)-4-[3-(5-fluoro-pyridin-3-yl)-phenyl]-4,5-dihydro-oxazol-2-ylamine formate] stands 720 nM.
The compound `COc1cncc(-c2cccc(C3(c4ccc(OC(F)F)cc4C)COC(N)=N3)c2)c1` (racemic) [Example 146, (RS)-4-(4-Difluoromethoxy-2-methyl-phenyl)-4-[3-(5-methoxy-pyridin-3-yl)-phenyl]-4,5-dihydro-oxazol-2-ylamine formate] came in with an IC50 of 200 nM.
`Cc1cc(OC(F)F)ccc1C1(c2cccc(-c3cccc(Cl)c3)c2)COC(N)=N1` (racemic) [Example 149, (RS)-4-(3′-Chloro-biphenyl-3-yl)-4-(4-difluoromethoxy-2-methyl-phenyl)-4,5-dihydro-oxazol-2-ylamine formate] yielded an IC50 of 960 nM.
Under `COc1cncc(-c2cccc(C3(c4ccc(OC)c(C(F)(F)F)c4)COC(N)=N3)c2)c1` (racemic) [Example 150, formate] stands 330 nM.
As for `CCOc1cc(Nc2ccccc2)cc(C2(c3ccc(OC(F)F)c(C)c3)COC(N)=N2)c1` (racemic) [Example 192], the figure is 660 nM.
As for `CCOCc1cc(Nc2ccccc2)cc(C2(c3ccc(OC(F)F)c(C)c3)COC(N)=N2)c1` (racemic) [Example 193, (RS)-4-(4-Difluoromethoxy-3-methyl-phenyl)-4-(3-ethoxymethyl-5-phenylamino-phenyl)-4,5-dihydro-oxazol-2-ylamine], the figure is 80 nM; as for `CCOCc1cc(Nc2cccc(OC)c2)cc(C2(c3ccc(OC(F)F)c(C)c3)COC(N)=N2)c1` (racemic) [Example 194, (RS)-4-(4-Difluoromethoxy-3-methyl-phenyl)-4-[3-ethoxymethyl-5-(3-methoxy-phenylamino)-phenyl]-4,5-dihydro-oxazol-2-ylamine], 140 nM.
Consider `CCOCc1cc(Nc2ccccc2)cc(C2(c3ccc(OC)c(C)c3)COC(N)=N2)c1` (racemic) [Example 195, (RS)-4-(3-Ethoxymethyl-5-phenylamino-phenyl)-4-(4-methoxy-3-methyl-phenyl)-4,5-dihydro-oxazol-2-ylamine], for which it took 960 nM to reach half-maximal inhibition (IC50).
Take `COCCc1cc(Nc2ccccc2)cc(C2(c3ccc(OC)c(C)c3)COC(N)=N2)c1` (racemic) [Example 197, (RS)-4-[3-(2-Methoxy-ethyl)-5-phenylamino-phenyl]-4-(4-methoxy-3-methyl-phenyl)-4,5-dihydro-oxazol-2-ylamine]: the midpoint of inhibition, the IC50, lay at 530 nM.
`Cc1cc(OC(F)F)ccc1C1(c2cccc(-c3cncc(C#N)c3)c2)COC(N)=N1` (racemic) [Example 200, (RS)-5-{3-[2-Amino-4-(4-difluoromethoxy-2-methyl-phenyl)-4,5-dihydro-oxazol-4-yl]-phenyl}-nicotinonitrile formate] gave an IC50 of 380 nM.
Compound `Cc1cc(OC(F)F)ccc1C1(c2cccc(-c3cncc(Cl)c3)c2)COC(N)=N1` (racemic) [Example 201, (RS)-4-[3-(5-Chloro-pyridin-3-yl)-phenyl]-4-(4-difluoromethoxy-2-methyl-phenyl)-4,5-dihydro-oxazol-2-ylamine formate] came in with an IC50 of 160 nM.
With `Cc1cc(C2(c3cccc(-c4cncc(Cl)n4)c3)COC(N)=N2)ccc1OC(F)F` (racemic) [Example 202, (RS)-4-[3-(6-Chloro-pyrazin-2-yl)-phenyl]-4-(4-difluoromethoxy-3-methyl-phenyl)-4,5-dihydro-oxazol-2-ylamine formate], inhibition was half-maximal at 440 nM (IC50).
As for `Cc1cc(C2(c3cccc(-c4cncc(C#N)c4)c3)COC(N)=N2)ccc1OC(F)F` (racemic) [Example 203, (RS)-5-{3-[2-Amino-4-(4-difluoromethoxy-3-methyl-phenyl)-4,5-dihydro-oxazol-4-yl]-phenyl}-nicotinonitrile formate], the figure is 110 nM; as for `Cc1cc(C2(c3cccc(-c4cnccn4)c3)COC(N)=N2)ccc1OC(F)F` (racemic) [Example 204, (RS)-4-(4-Difluoromethoxy-3-methyl-phenyl)-4-(3-pyrazin-2-yl-phenyl)-4,5-dihydro-oxazol-2-ylamine formate], 160 nM; as for `Cc1cc(C2(c3ccc(F)c(-c4cncc(Cl)c4)c3)COC(N)=N2)ccc1OC(F)F` (racemic) [Example 205, (RS)-4-[3-(5-Chloro-pyridin-3-yl)-4-fluoro-phenyl]-4-(4-difluoromethoxy-3-methyl-phenyl)-4,5-dihydro-oxazol-2-ylamine formate], 90 nM.
Under `COc1ccc([C@@]2(c3cccc(-c4cccc(Cl)c4)c3)COC(N)=N2)cc1` [Example 39A, (R)-4-(3′-Chloro-biphenyl-3-yl)-4-(4-methoxy-phenyl)-4,5-dihydro-oxazol-2-ylamine] stands 440 nM; under `Cc1cc([C@]2(c3cccc(-c4cncc(Cl)c4)c3)COC(N)=N2)ccc1OC(F)F` [Example 94A, (R)-4-[3-(5-Chloro-pyridin-3-yl)-phenyl]-4-(4-difluoromethoxy-3-methyl-phenyl)-4,5-dihydro-oxazol-2-ylamine], 40 nM.
